Source: publication PMC7615656 (European journal of pharmacology, 2010)

Legend:
[1] = molecular target: recombinant rat α4β3γ2 receptors (Rattus norvegicus, UniProt P18508+P28471); test: Two-electrode voltage clamp of GABA-induced chloride currents in Xenopus oocytes; assay type: cell-based; settings: for efficacy (% GABA EC3): α4β3γ2, ns = not significant
[2] = molecular target: recombinant rat α5β3γ2 receptors (Rattus norvegicus, UniProt P18508+P19969); test: as above; assay type: cell-based; settings: for efficacy (% GABA EC3): α5β3γ2, ns = not significant
[3] = molecular target: recombinant rat α1β3γ2F77I receptors (Rattus norvegicus, UniProt P18508+P62813, F115I); test: as above; assay type: cell-based; settings: α1β3γ2F77I, ns = not significant
[4] = molecular target: recombinant rat α6β3γ2 receptors (Rattus norvegicus, UniProt P18508+P30191); test: as above; assay type: cell-based; settings: for efficacy (% GABA EC3): α6β3γ2, ns = not significant
[5] = system: GABAA receptors containing the γ2F77I mutation; test: Modulation of GABA EC3 in receptors containing the γ2F77I mutation; assay type: cell-based, rat; settings: up to 100 nM
[6] = molecular target: recombinant rat α1β3γ2 receptors (Rattus norvegicus, UniProt P18508+P62813); test: Two-electrode voltage clamp of GABA-induced chloride currents in Xenopus oocytes; assay type: cell-based; settings: for efficacy (% GABA EC3): α1β3γ2, ns = not significant
[7] = molecular target: recombinant rat α4β3γ2F77I receptors (Rattus norvegicus, UniProt P18508+P28471, F115I); test: as above; assay type: cell-based; settings: ns = not significant
[8] = molecular target: recombinant rat α5β3γ2F77I receptors (Rattus norvegicus, UniProt P18508+P19969, F115I); test: as above; assay type: cell-based; settings: for efficacy (% GABA EC3): α5β3γ2F77I, ns = not significant
[9] = molecular target: recombinant rat α3β3γ2 receptors (Rattus norvegicus, UniProt P18508+P20236); test: as above; assay type: cell-based; settings: for efficacy (% GABA EC3): α3β3γ2, ns = not significant
[10] = molecular target: recombinant rat α2β3γ2F77I receptors (Rattus norvegicus, UniProt P18508+P23576, F115I); test: as above; assay type: cell-based; settings: α2β3γ2F77I, ns = not significant
[11] = molecular target: recombinant rat α2β3γ2 receptors (Rattus norvegicus, UniProt P18508+P23576); test: as above; assay type: cell-based; settings: for efficacy (% GABA EC3): α2β3γ2, ns = not significant
[12] = molecular target: recombinant rat α3β3γ2F77I receptors (Rattus norvegicus, UniProt P18508+P20236, F115I); test: as above; assay type: cell-based; settings: α3β3γ2F77I, ns = not significant
[13] = molecular target: recombinant rat α6β3γ2F77I receptors (Rattus norvegicus, UniProt P18508+P30191, F115I); test: as above; assay type: cell-based; settings: ns = not significant

Sequence of recombinant rat α2β3γ2 receptors (P23576 29-451): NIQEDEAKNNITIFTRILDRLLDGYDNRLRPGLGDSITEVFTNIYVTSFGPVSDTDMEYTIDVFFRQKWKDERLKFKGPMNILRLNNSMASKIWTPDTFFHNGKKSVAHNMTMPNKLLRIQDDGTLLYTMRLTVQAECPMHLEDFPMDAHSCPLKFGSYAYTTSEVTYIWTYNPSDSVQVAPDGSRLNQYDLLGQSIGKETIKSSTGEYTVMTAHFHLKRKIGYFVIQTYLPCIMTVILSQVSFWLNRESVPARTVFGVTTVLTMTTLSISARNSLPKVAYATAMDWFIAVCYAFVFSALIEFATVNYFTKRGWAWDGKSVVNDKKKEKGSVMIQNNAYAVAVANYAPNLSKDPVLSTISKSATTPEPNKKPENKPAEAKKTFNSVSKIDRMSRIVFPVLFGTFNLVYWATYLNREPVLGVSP
Sequence of recombinant rat α2β3γ2 receptors (P63079 26-473 partner): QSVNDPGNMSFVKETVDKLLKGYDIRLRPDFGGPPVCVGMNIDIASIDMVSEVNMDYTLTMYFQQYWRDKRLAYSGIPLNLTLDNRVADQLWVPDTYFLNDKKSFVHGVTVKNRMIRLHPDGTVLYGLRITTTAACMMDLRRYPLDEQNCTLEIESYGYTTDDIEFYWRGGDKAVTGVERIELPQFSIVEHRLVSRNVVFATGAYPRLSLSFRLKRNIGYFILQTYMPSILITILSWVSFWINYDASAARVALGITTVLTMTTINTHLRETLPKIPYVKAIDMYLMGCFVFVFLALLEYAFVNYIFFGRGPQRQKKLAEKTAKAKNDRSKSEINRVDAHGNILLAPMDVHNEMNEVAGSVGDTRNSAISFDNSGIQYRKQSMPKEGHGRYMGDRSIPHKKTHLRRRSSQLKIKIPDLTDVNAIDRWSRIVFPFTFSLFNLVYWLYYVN
Sequence of recombinant rat α2β3γ2 receptors (P18508 39-466): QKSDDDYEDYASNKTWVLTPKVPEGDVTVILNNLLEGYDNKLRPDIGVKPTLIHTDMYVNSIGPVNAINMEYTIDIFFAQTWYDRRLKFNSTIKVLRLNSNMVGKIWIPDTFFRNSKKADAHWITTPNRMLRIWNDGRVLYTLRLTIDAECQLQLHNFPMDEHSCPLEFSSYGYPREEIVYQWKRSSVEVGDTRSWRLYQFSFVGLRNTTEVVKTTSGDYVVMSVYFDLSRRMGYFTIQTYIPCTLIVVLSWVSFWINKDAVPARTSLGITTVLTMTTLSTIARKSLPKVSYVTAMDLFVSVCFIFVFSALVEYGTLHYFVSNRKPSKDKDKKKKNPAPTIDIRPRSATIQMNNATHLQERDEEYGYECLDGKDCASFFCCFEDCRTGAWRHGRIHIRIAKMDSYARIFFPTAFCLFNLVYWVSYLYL
Sequence of recombinant rat α2β3γ2F77I receptors (P23576 29-451): as the sequence (P23576 29-451) above
Sequence of recombinant rat α2β3γ2F77I receptors (P63079 26-473 partner): as the sequence (P63079 26-473 partner) above
Sequence of recombinant rat α2β3γ2F77I receptors (P18508 39-466 F115I): as the sequence (P18508 39-466) above, with F77I counted along it
Sequence of recombinant rat α1β3γ2 receptors (P62813 28-455): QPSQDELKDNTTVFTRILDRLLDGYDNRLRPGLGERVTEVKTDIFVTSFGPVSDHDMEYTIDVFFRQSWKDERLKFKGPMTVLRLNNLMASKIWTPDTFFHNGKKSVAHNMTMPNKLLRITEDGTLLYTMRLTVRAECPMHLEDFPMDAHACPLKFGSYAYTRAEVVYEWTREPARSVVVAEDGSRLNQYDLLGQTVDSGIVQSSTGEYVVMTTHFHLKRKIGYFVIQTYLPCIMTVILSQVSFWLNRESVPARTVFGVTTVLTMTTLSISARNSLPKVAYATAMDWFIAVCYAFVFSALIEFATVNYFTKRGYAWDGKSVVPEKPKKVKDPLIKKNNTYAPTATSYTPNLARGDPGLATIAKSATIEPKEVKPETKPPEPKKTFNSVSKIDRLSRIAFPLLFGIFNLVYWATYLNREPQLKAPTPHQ
Sequence of recombinant rat α1β3γ2 receptors (P63079 26-473 partner): as the sequence (P63079 26-473 partner) above
Sequence of recombinant rat α1β3γ2 receptors (P18508 39-466): as the sequence (P18508 39-466) above

With `CC(C)(C)OC(=O)c1ncn2c1[C@@H]1CCCN1C(=O)c1c(Br)cccc1-2` [Bretazenil, t-butyl(s)-8-bromo-11,12,13,13a-tetrahydro-9-oxo-9H-imidazo[1,5-a] pyrrolo[2,1-c][1,4]benzodiazepine-1-carboxylate] the EC50 [1] was > 354 nM, the “efficacy (% GABA EC3)” value ([1]; 10 nM) was “ns” and the “efficacy (% GABA EC3)” value ([1]; 100 nM) was 156 ± 11 % GABA EC3. The “efficacy (% GABA EC3)” value ([1]; 1 μM) was 332 ± 23 % GABA EC3, the “efficacy (% GABA EC3)” value ([1]; 10 μM) was 395 ± 8 % GABA EC3 and the EC50 [2] was 9 ± 2 nM. For the same compound, the “efficacy (% GABA EC3)” value ([2]; 10 nM) was 168 ± 13 % GABA EC3, the “efficacy (% GABA EC3)” value ([2]; 100 nM) was 205 ± 17 % GABA EC3 and the “efficacy (% GABA EC3)” value ([2]; 1 μM) was 216 ± 22 % GABA EC3. For the same compound, the “efficacy (% GABA EC3)” value ([2]; 10 μM) was 228 ± 23 % GABA EC3, the “efficacy (% GABA EC3)” value ([3]; 10 nM) was “ns” and the “efficacy (% GABA EC3)” value ([3]; 100 nM) was 120 ± 6 % GABA EC3. For the same compound, the “efficacy (% GABA EC3)” value ([3]; 1 μM) was 149 ± 12 % GABA EC3, the “efficacy (% GABA EC3)” value ([3]; 10 μM) was 164 ± 21 % GABA EC3 and the EC50 [4] was > 322 nM. The “efficacy (% GABA EC3)” value ([4]; 10 nM) was “ns”, the “efficacy (% GABA EC3)” value ([4]; 100 nM) was “ns” and the “efficacy (% GABA EC3)” value ([4]; 1 μM) was 202 ± 12 % GABA EC3. For the same compound, the “efficacy (% GABA EC3)” value ([4]; 10 μM) was 231 ± 13 % GABA EC3, the “activity in the mutated receptors” value [5] was “inactive” and the EC50 [6] was 4 ± 1 nM. For the same compound, the “efficacy (% GABA EC3)” value ([6]; 10 nM) was 126 ± 5 % GABA EC3, the “efficacy (% GABA EC3)” value ([6]; 100 nM) was 134 ± 7 % GABA EC3 and the “efficacy (% GABA EC3)” value ([6]; 1 μM) was 136 ± 9 % GABA EC3. The “efficacy (% GABA EC3)” value ([6]; 10 μM) was 138 ± 10 % GABA EC3, the “efficacy (% GABA EC3)” value ([7]; 10 nM) was “ns” and the “efficacy (% GABA EC3)” value ([7]; 100 nM) was “ns”. For the same compound, the “efficacy (% GABA EC3)” value ([7]; 1 μM) was “ns”, the “efficacy (% GABA EC3)” value ([7]; 10 μM) was “ns” and the EC50 [8] was > 748 nM. For the same compound, the “efficacy (% GABA EC3)” value ([8]; 10 nM) was “ns”, the “efficacy (% GABA EC3)” value ([8]; 100 nM) was 124 ± 3 % GABA EC3 and the “efficacy (% GABA EC3)” value ([8]; 1 μM) was 193 ± 8 % GABA EC3. For the same compound, the “efficacy (% GABA EC3)” value ([8]; 10 μM) was 249 ± 11 % GABA EC3, the EC50 [9] was 15 ± 2 nM and the “efficacy (% GABA EC3)” value ([9]; 10 nM) was 154 ± 6 % GABA EC3. For the same compound, the “efficacy (% GABA EC3)” value ([9]; 100 nM) was 213 ± 11 % GABA EC3, the “efficacy (% GABA EC3)” value ([9]; 1 μM) was 224 ± 14 % GABA EC3 and the “efficacy (% GABA EC3)” value ([9]; 10 μM) was 234 ± 17 % GABA EC3. For the same compound, the “efficacy (% GABA EC3)” value ([10]; 10 nM) was “ns”, the “efficacy (% GABA EC3)” value ([10]; 1 μM) was 125 ± 3 % GABA EC3 and the “efficacy (% GABA EC3)” value ([10]; 10 μM) was 179 ± 8 % GABA EC3. The EC50 [11] was 7 ± 1 nM, the “efficacy (% GABA EC3)” value ([11]; 10 nM) was 119 ± 4 % GABA EC3 and the “efficacy (% GABA EC3)” value ([11]; 100 nM) was 128 ± 5 % GABA EC3. For the same compound, the “efficacy (% GABA EC3)” value ([11]; 1 μM) was 130 ± 7 % GABA EC3, the “efficacy (% GABA EC3)” value ([11]; 10 μM) was 129 ± 10 % GABA EC3 and the “efficacy (% GABA EC3)” value ([12]; 10 nM) was “ns”. For the same compound, the “efficacy (% GABA EC3)” value ([12]; 100 nM) was 117 ± 3 % GABA EC3, the “efficacy (% GABA EC3)” value ([12]; 1 μM) was 143 ± 7 % GABA EC3 and the “efficacy (% GABA EC3)” value ([12]; 10 μM) was 238 ± 15 % GABA EC3. The “efficacy (% GABA EC3)” value ([13]; 10 nM) was “ns”, the “efficacy (% GABA EC3)” value ([13]; 100 nM) was “ns” and the “efficacy (% GABA EC3)” value ([13]; 1 μM) was “ns”. For the same compound, the “efficacy (% GABA EC3)” value ([13]; 10 μM) was “ns”.
